Data from patent US20180305719A1, “Vectors For Integration Of DNA Into Genomes And Methods For Altering Gene Expression And Interrogating Gene Function” (The Board of Trustees of the University of Illinois, priority 2017, published 2018).

Assays:
Type in all cases: cell-based, human
[1] = system: NEUROD1; test: Activation of native gene expression in 293T cells, qPCR; details: for induction of NEUROD1: 200 ng/mL doxycycline, NAVIa-edited 293T; for increase in NEUROD1 gene expression: idpTV-edited cells
Description: (§1) 293T and HCT116 cells were obtained from the American Tissue Collection Center (ATCC) and were maintained in DMEM supplemented with 10% fetal bovine serum and 1% penicillin/streptomycin at 37° C. with 5% CO2. 293T and HCT116 cells were transfected with Lipofectamine 2000 (Invitrogen) according to manufacturer's instructions. Transfection efficiencies were routinely higher than 80% for 293T cells and higher than 50% for HCT116 cells as determined by fluorescent microscopy following delivery of a control GFP expression plasmid. Induction of gene expression, unless otherwise noted, was carried out with 200 ng/mL doxycycline in DMEM prepared with 10% tetracycline-free FBS for 4 days.
(§2) Cells were harvested and flash-frozen in liquid nitrogen prior to RNA-extraction using the RNeasy Plus RNA isolation kit (Qiagen) according to manufacturer's instructions. cDNA synthesis was carried out using the qScript cDNA Synthesis Kit (Quanta Biosciences) from 1 μg of RNA and reactions were performed as directed by the supplier. For RT-qPCR, SsoFast EvaGreen Supermix (Bio-Rad) was added to cDNA and primers targeting the gene of interest and GAPDH (Table 10). Following 30 s at 95° C., qPCR (5 s at 95° C., 20 s at 55° C., 40 total cycles) preceded melt-curve analysis of the product by the CFX Connect Real-Time System (Bio-Rad). Ct values were used to calculate changes in expression level, relative to GAPDH and control samples by the 2^−ΔΔCt method.
In order to evaluate this gene activation architecture in the context of the human genome, three target genes were selected whose reported levels of activation utilizing CRISPRa are either high (ASCL1, ˜10^3-fold), medium (NEUROD1, ˜10^2-fold), or low (POU5F1, ˜10-fold). The primary sgRNAs targeting the genome were co-transfected into 293T cells with three plasmids containing (1) an expression cassette for active Cas9, (2) customized cspTV, cdpTV or idpTV, and (3) a universal secondary sgRNA. Following transfection, cells with integration of the TV were selected using puromycin and, in cells transfected with the idpTV, gene expression was induced with doxycycline. In parallel, one sgRNA or a mixture of 4 sgRNAs (previously validated for use with CRISPRa) were co-transfected into 293 Ts with dCas9-VPR for comparison of the NAVIa with CRISPRa. Gene expression using an individual sgRNA directing dCas9-VPR to target promoters was increased ˜10-fold for all targets tested but not statistically significant. Utilization of 4 sgRNAs simultaneously activated gene expression more effectively than 1 sgRNA (ASCL1: ˜1800-fold, NEUROD1: ˜2900-fold, POU5F:1 ˜90-fold). […] However, the idpTV (ASCL1: ˜7200-fold, NEUROD1: ˜76000-fold, POU5F1: ˜5370-fold) surpassed activation obtained using dCas9-VPR using 4 sgRNAs (FIG. 14B).

[2] = system: NEUROD1; test: NEUROD1 expression by qPCR in HCT116 and MRC-5 cells
Description: as §1, §2
To further explore the trends we observed in 293T cells, NeuroD1 was targeted using the cdpTV in other cell lines.

[3] = system: HCT116 cells; test: Quantification of integration efficiency (colonies after antibiotic selection); details: for Avg. Colonies: 450,000 cells transfected
Description: HCT116 cells were transfected with individual RGNs targeting either CTTN exon 8 or HLA-DRA, as well as Cas9, one universal RGN, and either one or two transfer vectors with expression cassettes conferring resistance to puromycin or puromycin and hygromycin. A total of 450,000 cells were transfected using 100 ng of each plasmid. The transfection efficiency was ˜55% as determined by FACS following delivery of a control GFP expression plasmid. Three days post transfection, 90% of cells from each well were harvested and replated into 10 cm dishes for selection with the appropriate antibiotics. Cells with monoallelic modifications were selected with puromycin whereas cells with biallelic modifications were selected with puromycin and hygromycin. Media and antibiotics were replenished every three days. Visible colonies appeared after approximately after one week. The number of clones for each transfection was counted and integration efficiency was determined as the ratio of the number of clonal cells derived from each transfection relative to the number of alleles modified by each specific sgRNA, as measured in experimental control samples using the surveyor assay.
Following selection in 10-cm plates with the appropriate antibiotic, total colonies were counted and divided by total cells transfected to obtain the overall editing efficiency of NAVI. This value was then adjusted to account for overall sgRNA editing efficiency, as measured by surveyor nuclease assay. This quantification was performed at 2 different loci using either a single or two antibiotics for selection.

[4] = selection Puromycin + Hygromycin

| Compound | induction of NEUROD1 ([1]; 12 h) [fold] | induction of NEUROD1 ([1]; 24 h) [fold] | induction of NEUROD1 ([1]; 48 h) [fold] | induction of NEUROD1 ([1]; 96 h) [fold] | increase in NEUROD1 gene expression ([1]; doxycycline 2 ng/mL, 96 h) [fold] | increase in NEUROD1 gene expression ([1]; doxycycline 2 μg/mL, 96 h) [fold] | ratio of gene expression between samples with and without doxycycline treatment ([2]; heterozygous clones) [fold] | ratio of gene expression between samples with and without doxycycline treatment ([2]; homozygous clones) [fold] | ratio of gene expression between samples with and without doxycycline treatment ([2]; pooled cells) [fold] | % Efficiency (adjusted by indel %) ([3]; selection Puromycin) [%] | % Efficiency (colonies/transfected cells) ([3]; selection Puromycin) [%] | % Efficiency (adjusted by indel %) [3, 4] [%] | % Efficiency (colonies/transfected cells) [3, 4] [%] | Avg. Colonies [3, 4] | Avg. Colonies ([3]; selection Puromycin) |
| --- | --- | --- | --- | --- | --- | --- | --- | --- | --- | --- | --- | --- | --- | --- | --- |
| C[C@H]1c2cccc(O)c2C(=O)C2=C(O)[C@]3(O)C(=O)C(C(N)=O)=C(O)[C@@H](N(C)C)[C@@H]3[C@@H](O)[C@@H]21 [doxycycline] | ~4000 | ~5000 | ~10000 | ~15000 | ~337 | ~26015 | ~426 | ~1486 | ~22 |  |  |  |  |  |  |
| CTTN exon 8: sgRNA, protospacer GCGCTCTTGTCTACTCGGT, SEQ ID NO 8 (expressed or natural sequence) |  |  |  |  |  |  |  |  |  | 12.00 | 0.38 | 5.00 | 0.16 | 725 | 1726 |
| HLA-DRA: sgRNA, protospacer GCTGTGCTGATGAGCGCTC, SEQ ID NO 9 (expressed or natural sequence) |  |  |  |  |  |  |  |  |  | 26.40 | 0.58 | 4.60 | 0.10 | 453 | 2610 |
